# Measured values from the supplement of paper PMC10307832.
# Columns and labels:
# Experiment in all cases: relative viability (nuclei count vs DMSO), 5 days (fraction); higher = more cells survive
# YM155 + Olaparib = compound: COCC[n+]1c2c(n(Cc3cnccn3)c1C)C(=O)c1ccccc1C2=O [YM155] + O=C(c1cc(Cc2n[nH]c(=O)c3ccccc23)ccc1F)N1CCN(C(=O)C2CC2)CC1 [Olaparib] (partner 8 µM)
# Outline: (§1)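 Five library-drug doses in √10 steps were combined with a fixed anchor-drug dose, or a single drug was given alone, by pin tool to lung cancer cell lines in 1536-well plates the day after seeding. Nuclei were stained and counted after 5 days. Relative viability is the nuclei count in treated wells over that in vehicle wells, taken as the median of duplicate plates.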
# YM155 + Pemetrexed = compound: COCC[n+]1c2c(n(Cc3cnccn3)c1C)C(=O)c1ccccc1C2=O [YM155] + Nc1nc2[nH]cc(CCc3ccc(C(=O)N[C@@H](CCC(=O)O)C(=O)O)cc3)c2c(=O)[nH]1 [Pemetrexed] (partner 0.2 µM)
# Outline: as §1
# Quizartinib + Linsitinib = compound: CC(C)(C)c1cc(NC(=O)Nc2ccc(-c3cn4c(n3)sc3cc(OCCN5CCOCC5)ccc34)cc2)no1 [Quizartinib] + C[C@]1(O)C[C@@H](c2nc(-c3ccc4ccc(-c5ccccc5)nc4c3)c3c(N)nccn32)C1 [Linsitinib] (partner 1 µM)
# Outline: as §1
# YM155 + Crizotinib = compound: COCC[n+]1c2c(n(Cc3cnccn3)c1C)C(=O)c1ccccc1C2=O [YM155] + C[C@@H](Oc1cc(-c2cnn(C3CCNCC3)c2)cnc1N)c1c(Cl)ccc(F)c1Cl [Crizotinib] (partner 1 µM)
# Outline: as §1
Cell Line,relative viability (YM155 + Olaparib; first compound 0.002 µM),relative viability (YM155 + Olaparib; first compound 0.006325 µM),relative viability (YM155 + Olaparib; first compound 0.02 µM),relative viability (YM155 + Olaparib; first compound 0.06325 µM),relative viability (YM155 + Pemetrexed; first compound 0.002 µM),relative viability (YM155 + Pemetrexed; first compound 0.006325 µM),relative viability (YM155 + Pemetrexed; first compound 0.02 µM),relative viability (YM155 + Pemetrexed; first compound 0.06325 µM),relative viability (Quizartinib + Linsitinib; first compound 0.001 µM),relative viability (Quizartinib + Linsitinib; first compound 0.003162 µM),relative viability (Quizartinib + Linsitinib; first compound 0.01 µM),relative viability (Quizartinib + Linsitinib; first compound 0.03162 µM),relative viability (Quizartinib + Linsitinib; first compound 0.1 µM),relative viability (YM155 + Crizotinib; first compound 0.002 µM),relative viability (YM155 + Crizotinib; first compound 0.006325 µM),relative viability (YM155 + Crizotinib; first compound 0.02 µM),relative viability (YM155 + Crizotinib; first compound 0.06325 µM)
NCI-H1975,0.717,0.756,0.767,0.189,0.26,0.258,0.302,0.167,0.964,0.85,0.956,1,1.17,0.941,1.03,0.995,0.633
NCI-H1993,0.765,1.01,0.79,0.465,0.566,0.542,0.567,0.444,0.739,0.716,0.817,0.757,0.833,1.01,0.825,0.703,0.552
NCI-H2009,0.66,0.673,0.582,0.337,0.93,1.07,0.85,0.528,0.917,1.13,1.24,1.01,1.18,1.02,0.992,0.725,0.0795
NCI-H2023,0.558,0.468,0.379,0.325,0.23,0.247,0.194,0.155,0.556,0.585,0.564,0.454,0.574,0.719,0.734,0.717,0.361
NCI-H2085,0.737,0.755,0.805,0.516,0.705,0.884,0.911,0.869,0.866,0.844,0.973,0.907,0.948,0.698,0.767,0.77,0.477
NCI-H2087,0.547,0.589,0.586,0.49,0.639,0.677,0.685,0.604,0.857,0.98,1.06,0.935,0.705,0.914,0.71,0.883,0.648
NCI-H2126,0.884,0.921,0.935,0.946,0.696,0.691,0.67,0.753,0.712,0.705,0.735,0.767,0.835,0.988,0.967,1.07,1.04
NCI-H2228,0.67,0.597,0.809,0.581,0.329,0.318,0.332,0.326,0.736,0.699,0.808,0.534,0.624,0.527,0.445,0.368,0.563
NCI-H2347,0.536,0.489,0.618,0.498,0.542,0.407,0.436,0.39,0.943,0.956,0.969,0.908,1.07,0.683,0.644,0.561,0.633
